{
  "source": "patent US9045403B2",
  "about": "(Coyote Pharmaceuticals, Inc., priority 2012, dated 2015)",
  "key": {"[1]": {"tested_on": "Mouse Neuro2A neuroblastoma cells", "test": "Neuro2A cells with neurites after GGTI-298 (Example 16)", "format": "cell-based", "settings": "10 μM, 48 hrs", "experimental": "Mouse Neuro2A neuroblastoma cells were cultured in DMEM supplemented with 10% FBS for 24 hrs. […] Then differentiation was induced by retinoic acid in DMEM supplemented with 2% FBS. The cell culture was incubated with a Geranylgeranyl Transferase inhibitor, GGTI-298. […]"}, "Neuro2A cells": {"tested_on": "Neuro2A cells", "test": "Neuro2A cells that extended neurites, with GGTI-298 (Example 18)", "format": "cell-based, mouse", "settings": "0.1-1 μM, vehicle 0.0-0.20", "description": "After differentiation was induced, cells that extended neurites were counted."}, "[2]": {"tested_on": "Sprague Dawley rats, KA injected into the hippocampus", "test": "Neuroprotection by CNS-102 in the presence of GGA cis-isomer in the kainic acid model", "format": "in vivo", "settings": "24 mg/Kg rat oral; KA at 72 hours", "experimental": "After dosing, KA was stereotactically injected into the hippocampus at 72 hours to induce neuron damage. After 24 h, hippocampus tissue was collected, stained, and imaged. The scans were analyzed by Image J to calculate the fraction of cells having KA-induced damage."}, "[3]": {"tested_on": "Murine neuro2A neuroblastoma cells", "test": "Neurite outgrowth of neuro2A cells inhibited with GGTI-298 (Example 30)", "format": "cell-based, mouse", "settings": "for Relative %: relative to uninhibited count", "experimental": "Differentiation was induced and cells incubated with geranylgeranyl transferase I inhibitor, GGTI-298. After 24 h digital images were taken and neurite outgrowth was quantified. The comparisons of the neuroprotective effect of these three compounds are shown below.\nThe estimated mean log10 counts, from five replicate wells for each treatment group were calculated by PROC GLM in SAS assuming a pooled estimate of variation.\nThe estimated mean log10 counts from five replicate wells for each treatment group were calculated by PROC GLM in SAS assuming a pooled estimate of variation.\nDifferences in mean log(counts) between treatments for each concentration were calculated using PROC GLM in SAS. The p-value given is for the comparison of the estimated difference to zero, the expected difference value for no treatment effect. The anti-log of the differences represent the estimated ratio of counts (relative effect on inhibition) and are tabulated below along with the lower and upper 95% confidence intervals."}},
  "data": [
    {"compound": "CC(=O)CC/C=C(\\C)CC/C=C(\\C)CC/C=C(\\C)CCC=C(C)C", "note": "[CNS-102]", "values": [
      {"measurement": "Mean of cell numbers (Arbitrary units)", "setting": "[1]", "value": 0.738, "unit": "Arbitrary units"},
      {"measurement": "Mean of cell numbers (Arbitrary units)", "setting": "Neuro2A cells", "value": "0.45-0.65 Arbitrary units"},
      {"measurement": "Mean of Hippocampus CA3 neurons damaged (Arbitrary units)", "setting": "[2]", "value": 19.8182, "unit": "Arbitrary units"},
      {"measurement": "Median Counts of cells with neurite outgrowth", "setting": "[3]; 10 nM, CNS-101 vs CNS-102 experiment (no inhibition 95.5, PBS 21.5)", "value": 33.8},
      {"measurement": "Relative %", "setting": "[3]; 10 nM, CNS-101 vs CNS-102 experiment", "value": 35.4, "unit": "%"},
      {"measurement": "Median Counts of cells with neurite outgrowth", "setting": "[3]; 100 nM, CNS-101 vs CNS-102 experiment (no inhibition 95.5, PBS 21.5)", "value": 43.4},
      {"measurement": "Relative %", "setting": "[3]; 100 nM, CNS-101 vs CNS-102 experiment", "value": 45.4, "unit": "%"},
      {"measurement": "Median Counts of cells with neurite outgrowth", "setting": "[3]; 100 nM, CNS-102 vs CNS-103 experiment (no inhibition 60.3, PBS 18.5)", "value": 33.5},
      {"measurement": "Relative %", "setting": "[3]; 100 nM, CNS-102 vs CNS-103 experiment", "value": 55.6, "unit": "%"},
      {"measurement": "Median Counts of cells with neurite outgrowth", "setting": "[3]; 1000 nM, CNS-101 vs CNS-102 experiment (no inhibition 95.5, PBS 21.5)", "value": 51.0},
      {"measurement": "Relative %", "setting": "[3]; 1000 nM, CNS-101 vs CNS-102 experiment", "value": 53.4, "unit": "%"},
      {"measurement": "Median Counts of cells with neurite outgrowth", "setting": "[3]; 1000 nM, CNS-102 vs CNS-103 experiment (no inhibition 60.3, PBS 18.5)", "value": 23.8},
      {"measurement": "Relative %", "setting": "[3]; 1000 nM, CNS-102 vs CNS-103 experiment", "value": 39.5, "unit": "%"},
      {"measurement": "Median Counts of cells with neurite outgrowth", "setting": "[3]; 10000 nM, CNS-101 vs CNS-102 experiment (no inhibition 95.5, PBS 21.5)", "value": 38.2},
      {"measurement": "Relative %", "setting": "[3]; 10000 nM, CNS-101 vs CNS-102 experiment", "value": 40, "unit": "%"},
      {"measurement": "maximum protection", "setting": "[3]; CNS-101 vs CNS-102 experiment, FIG. 4A", "value": "~40", "unit": "%"},
      {"measurement": "maximum protection", "setting": "[3]; CNS-102 vs CNS-103 experiment, FIG. 4B", "value": "~36", "unit": "%"}
    ]}
  ]
}
